Reference: PubChem BioAssay AID248 (DTP/NCI, 2004)
Where “and” joins values, the source holds several entries; their conditions need not be identical. Identical values can stand only once. Toxic doses and inconclusive results are not listed.

Tested on: L1210 leukemia ip in BDF1 mice, survival T/C
Assay: NCI In Vivo Anticancer Drug Screen. Data for tumor model L1210 Leukemia (intraperitoneal) in B6D2F1 (BDF1) mice
Conditions: endpoint: mean survival time, higher = longer survival
Summary of the method: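 Transplanted-tumor mice were given test agent; controls received vehicle only. Survival readings from the two groups were divided (treated over control).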

[1] = dose: 100.0 mg/kg/injection, schedule: Q01DX001 (ip), vehicle: saline
[2] = dose: 100.0 mg/kg/injection, schedule: Q04DX003 (ip), vehicle: saline
[3] = dose: 200.0 mg/kg/injection, schedule: Q01DX001 (ip), vehicle: saline
[4] = dose: 200.0 mg/kg/injection, schedule: Q04DX003 (ip), vehicle: saline
[5] = dose: 400.0 mg/kg/injection, schedule: Q01DX001 (ip), vehicle: saline
[6] = dose: 400.0 mg/kg/injection, schedule: Q01DX009 (ip), vehicle: saline with Tween-80
[7] = dose: 400.0 mg/kg/injection, schedule: Q04DX003 (ip), vehicle: saline
[8] = dose: 100.0 mg/kg/injection, schedule: Q04DX003 (ip), vehicle: Klucel (hydroxypropylcellulose) (HPC)
[9] = dose: 200.0 mg/kg/injection, schedule: Q04DX003 (ip), vehicle: Klucel (hydroxypropylcellulose) (HPC)
[10] = dose: 12.5 mg/kg/injection, schedule: Q01DX009 (ip), vehicle: saline
[11] = dose: 100.0 mg/kg/injection, schedule: Q01DX009 (ip), vehicle: saline with Tween-80
[12] = dose: 200.0 mg/kg/injection, schedule: Q01DX009 (ip), vehicle: saline with Tween-80
[13] = dose: 100.0 mg/kg/injection, schedule: Q01DX009 (ip), vehicle: Klucel (hydroxypropylcellulose) (HPC)
[14] = dose: 200.0 mg/kg/injection, schedule: Q01DX009 (ip), vehicle: Klucel (hydroxypropylcellulose) (HPC)
[15] = dose: 400.0 mg/kg/injection, schedule: Q01DX009 (ip), vehicle: Klucel (hydroxypropylcellulose) (HPC)
[16] = dose: 400.0 mg/kg/injection, schedule: Q04DX003 (ip), vehicle: Klucel (hydroxypropylcellulose) (HPC)
[17] = dose: 100.0 mg/kg/injection, schedule: Q04DX002 (ip), vehicle: Klucel (hydroxypropylcellulose) (HPC)
[18] = dose: 200.0 mg/kg/injection, schedule: Q04DX002 (ip), vehicle: Klucel (hydroxypropylcellulose) (HPC)
[19] = dose: 400.0 mg/kg/injection, schedule: Q04DX002 (ip), vehicle: Klucel (hydroxypropylcellulose) (HPC)

In the case of `COc1cc(C)oc(=O)c1`, the T/C (dose: 100.0 mg/kg/injection, schedule: Q01DX001 (ip), vehicle: Klucel (hydroxypropylcellulose) (HPC)) is reported as 110 % of control, the T/C [1] is reported as 98 % of control and the T/C (dose: 100.0 mg/kg/injection, schedule: Q01DX009 (ip), vehicle: saline) is reported as 93 % of control and 101 % of control. For the same molecule, the T/C [2] was 97 % of control, the T/C (dose: 200.0 mg/kg/injection, schedule: Q01DX001 (ip), vehicle: Klucel (hydroxypropylcellulose) (HPC)) was 104 % of control and the T/C [3] was 98 % of control. The T/C (dose: 200.0 mg/kg/injection, schedule: Q01DX009 (ip), vehicle: saline) was 93 % of control and 104 % of control, the T/C [4] was 93 % of control and the T/C (dose: 400.0 mg/kg/injection, schedule: Q01DX001 (ip), vehicle: Klucel (hydroxypropylcellulose) (HPC)) was 106 % of control. For the same molecule, the T/C [5] was 102 % of control, the T/C [6] was 108 % of control and the T/C (dose: 400.0 mg/kg/injection, schedule: Q01DX009 (ip), vehicle: saline) was 93 % of control. The T/C [7] was 92 % of control.
In the case of `CC1=NN(c2ccccc2)C(=O)C1N=Nc1ccccc1S(=O)(=O)O` (configuration not stated), the T/C [1] is reported as 96 % of control, the T/C [3] is reported as 94 % of control and the T/C [5] is reported as 102 % of control.
`CC(C)COC1CCCC(Oc2ccccc2)O1` (configuration not stated) was tested, and the T/C (dose: 55.0 mg/kg/injection, schedule: Q01DX Z (ip), vehicle: methylcellulose (MC)) was 92 % of control, the T/C (dose: 83.0 mg/kg/injection, schedule: Q01DX Z (ip), vehicle: methylcellulose (MC)) was 100 % of control and the T/C (dose: 125.0 mg/kg/injection, schedule: Q01DX Z (ip), vehicle: methylcellulose (MC)) was 91 % of control.
In the case of `CCN(CC)N=Nc1ccccc1-c1nc(N)c2ccccc2n1`, the T/C [8] is reported as 95 % of control and the T/C [9] is reported as 98 % of control.
In the case of `CC12CCC(=O)C3C1CCCC32`, the T/C (dose: 100.0 mg/kg/injection, schedule: Q01DX001 (ip), vehicle: carboxymethylcellulose (CMC)) is reported as 100 % of control, the T/C (dose: 200.0 mg/kg/injection, schedule: Q01DX001 (ip), vehicle: carboxymethylcellulose (CMC)) is reported as 111 % of control and the T/C (dose: 400.0 mg/kg/injection, schedule: Q01DX001 (ip), vehicle: carboxymethylcellulose (CMC)) is reported as 103 % of control.
For `CC(CN(C)C)C(=O)/C=C/c1ccccc1` (configuration not stated), the T/C [10] was 103 % of control, the T/C (dose: 25.0 mg/kg/injection, schedule: Q01DX009 (ip), vehicle: saline) was 104 % of control and the T/C (dose: 50.0 mg/kg/injection, schedule: Q01DX009 (ip), vehicle: saline) was 107 % of control.
With `COC1C(OC(C)=O)C(OC(C)=O)C(OC(C)=O)C(OC(C)=O)C1OC(C)=O` (configuration not stated) the T/C (dose: 50.0 mg/kg/injection, schedule: Q01DX009 (ip), vehicle: saline with Tween-80) was 94 % of control, the T/C [11] was 98 % of control and the T/C [12] was 88 % of control.
In the case of `C#CCN(C)/N=N/c1nc[nH]c1C(N)=O`, the T/C (dose: 50.0 mg/kg/injection, schedule: Q04DX003 (ip), vehicle: Klucel (hydroxypropylcellulose) (HPC)) is reported as 104 % of control, the T/C [13] is reported as 157 % of control and the T/C [8] is reported as 109 % of control and 116 % of control. For the same molecule, the T/C [14] was 118 % of control, the T/C [9] was 108 % of control and the T/C [15] was 88 % of control. The T/C [16] was 117 % of control.
In the case of `CC(=O)C(C=NCCN=CC(C(C)=O)C(C)=O)C(C)=O.[Ni]`, the T/C (dose: 100.0 mg/kg/injection, schedule: Q04DX002 (ip), vehicle: saline with Tween-80) is reported as 98 % of control and the T/C (dose: 200.0 mg/kg/injection, schedule: Q04DX002 (ip), vehicle: saline with Tween-80) is reported as 98 % of control.
With `O=c1ccn(Cc2ccccc2)cn1` the T/C [2] was 106 % of control, the T/C [4] was 104 % of control and the T/C [7] was 98 % of control.
In the case of `COc1ccc(NC(=O)c2ccc(C(=O)Nc3ccc(OC)cc3OC)cc2)c(OC)c1`, the T/C [17] is reported as 90 % of control, the T/C [18] is reported as 93 % of control and 102 % of control and the T/C [19] is reported as 93 % of control and 91 % of control.
With `Cc1cc(C)nc(/N=C(/N)Nc2ccc(S(=O)(=O)NC(=O)Nc3ccccc3)cc2)n1` the T/C [1] was 92 % of control, the T/C [3] was 98 % of control and the T/C [5] was 102 % of control.
For `CCCCCCCCc1ccc(C(C)=O)cc1`, the T/C [13] was 94 % of control, the T/C [8] was 102 % of control and the T/C [14] was 96 % of control. The T/C [9] was 100 % of control, the T/C [15] was 86 % of control and the T/C [16] was 107 % of control.
`Cc1ccc2c3csc4ccccc4c-3nc2c1` was tested, and the T/C (dose: 6.25 mg/kg/injection, schedule: Q01DX009 (ip), vehicle: saline) was 101 % of control, the T/C [10] was 95 % of control and the T/C (dose: 12.5 mg/kg/injection, schedule: Q04DX003 (ip), vehicle: saline) was 93 % of control. The T/C (dose: 25.0 mg/kg/injection, schedule: Q04DX003 (ip), vehicle: saline) was 92 % of control.
For `NC(=O)c1cnc(N)nc1C(N)=O`, the T/C [11] was 94 % of control, the T/C (dose: 100.0 mg/kg/injection, schedule: Q04DX003 (ip), vehicle: saline with Tween-80) was 96 % of control and the T/C [12] was 100 % of control. For the same molecule, the T/C (dose: 200.0 mg/kg/injection, schedule: Q04DX003 (ip), vehicle: saline with Tween-80) was 100 % of control, the T/C [6] was 96 % of control and the T/C (dose: 400.0 mg/kg/injection, schedule: Q04DX003 (ip), vehicle: saline with Tween-80) was 94 % of control.
For `Cc1c(C)c(C)c(CCl)c(CCl)c1C`, the T/C [17] was 97 % of control, the T/C [18] was 90 % of control and the T/C [19] was 122 % of control.
